This note sets out measurements from US20240228468A1, “N-(6-((OCTAHYDROCYCLOPENTA[C]PYRROL-5-YI)AMINO)PYRIDAZIN-3-YL)PHENYL)CARBOXAMIDE AND (6- ((OCTAHYDROCYCLOPENTA[C]PYRROL-5-YL)AMINO)PYRIDAZIN-3-YL)BENZAMIDE DERIVATIVES AS MACHR M4 ANTAGONISTS FOR THE TREATMENT OF NEURODEGENERATIVE DISORDERS” (Vanderbilt University, priority 2021, published 2024).

The assay addresses T1, Human M4 (Homo sapiens, UniProt P08173).
T1 construct: expressed in transfected cells; host or cells: CHO-K1 (ATCC), co-transfected with chimeric G protein Gqi5
T1 sequence (P08173 1-479): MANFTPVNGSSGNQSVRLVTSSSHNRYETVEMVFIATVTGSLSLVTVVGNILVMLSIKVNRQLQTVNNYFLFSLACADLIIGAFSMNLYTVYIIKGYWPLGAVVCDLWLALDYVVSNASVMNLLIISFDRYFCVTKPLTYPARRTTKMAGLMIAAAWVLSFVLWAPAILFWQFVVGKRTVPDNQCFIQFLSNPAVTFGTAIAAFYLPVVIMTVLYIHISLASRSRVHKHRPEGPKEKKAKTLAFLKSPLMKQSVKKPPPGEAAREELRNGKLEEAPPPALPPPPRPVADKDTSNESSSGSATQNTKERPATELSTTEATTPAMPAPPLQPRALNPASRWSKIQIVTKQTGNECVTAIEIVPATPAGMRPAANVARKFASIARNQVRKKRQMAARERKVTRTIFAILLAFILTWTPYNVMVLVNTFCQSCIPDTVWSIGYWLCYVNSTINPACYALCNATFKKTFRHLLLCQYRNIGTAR
Put plainly: mAChR M4 cell-based functional assay (calcium flux, antagonism of EC80 acetylcholine response). The conditions noted are these: for IC50: concentration-dependent decrease of the response elicited by an EC80 concentration of acetylcholine. In short, it runs like this:
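CHO-K1 cells stably expressing human M4 with chimeric Gqi5, Fluo-4 loaded; calcium flux read on FDSS. Compound (10-point, 1:3 series) added first, then EC20 acetylcholine at 143 s and EC80 at 268 s. IC50 from concentration-dependent decrease of EC80 response, four-parameter logistic fit.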

[1] abbreviates: M4/Gqi5/CHO-K1 cells, % ACh maximum at 30 μM, read-out: Human M4 Emin (% ACh maximum at 30 μM).

Like-named read-outs stand apart in the source and are kept apart here.

For the compound `[2H]C1([2H])CC(C([2H])([2H])N2C[C@H]3C[C@H](Nc4ccc(-c5cc(F)cc(C(=O)NC)c5)nn4)C[C@H]3C2)CC([2H])([2H])O1` [Compound A82, 3-fluoro-N-methyl-5-(6-(((3aR,5s,6aS)-2-((tetrahydro-2H-pyran-4-yl-2,2,6,6-d4)methyl-d2)octahydrocyclopenta[c]pyrrol-5-yl)amino)pyridazin-3-yl)benzamide], under setting [1], the remaining activity at 30 µM turned out to be 5%. Moreover, the IC50 (M4/Gqi5/CHO-K1 cells) was 29 nM.
The matching figures for `[2H]C([2H])([2H])C(=O)Nc1cccc(-c2ccc(N[C@H]3C[C@@H]4CN(C([2H])([2H])C5CCOCC5)C[C@@H]4C3)nn2)c1` [Compound A62, N-(3-(6-(((3aR,5s,6aS)-2-((tetrahydro-2H-pyran-4-yl)methyl-d2)octahydrocyclopenta[c]pyrrol-5-yl)amino)pyridazin-3-yl)phenyl)acetamide-2,2,2-d3]: 3% and 13 nM.
As for `CN(C)C(=O)c1cc(F)c(F)c(-c2ccc(N[C@H]3C[C@@H]4CN(CC5CCOCC5)C[C@@H]4C3)nn2)c1` [Compound A9, 3,4-difluoro-N,N-dimethyl-5-(6-(((3aR,5s,6aS)-2-((tetrahydro-2H-pyran-4-yl)methyl)octahydrocyclopenta[c]pyrrol-5-yl)amino)pyridazin-3-yl)benzamide], the remaining activity at 30 µM under setting [1] is 5%. For the same compound, the IC50 (M4/Gqi5/CHO-K1 cells) amounted to 440 nM.
For `O=C(c1cc(F)c(F)c(-c2ccc(N[C@H]3C[C@@H]4CN(CC5CCOCC5)C[C@@H]4C3)nn2)c1)N1CCOCC1` [Compound A10, (3,4-difluoro-5-(6-(((3aR,5s,6aS)-2-((tetrahydro-2H-pyran-4-yl)methyl)octahydrocyclopenta[c]pyrrol-5-yl)amino)pyridazin-3-yl)phenyl)(morpholino)methanone], in that order: 3% and 82 nM.
The matching figures for `CCC(=O)Nc1ccccc1-c1ccc(N[C@H]2C[C@@H]3CN(CC4CCOCC4)C[C@@H]3C2)nn1` [Compound A44, N-(2-(6-(((3aR,5s,6aS)-2-((tetrahydro-2H-pyran-4-yl)methyl)octahydrocyclopenta[c]pyrrol-5-yl)amino)pyridazin-3-yl)phenyl)propionamide]: 4% and 67 nM.
The matching figures for `[2H]C([2H])(C1CCOCC1)N1C[C@H]2C[C@H](Nc3ccc(-c4ccc(NC(=O)C5CC5)cc4)nn3)C[C@H]2C1` [Compound A35, N-(4-(6-(((3aR,5s,6aS)-2-((tetrahydro-2H-pyran-4-yl)methyl-d2)octahydrocyclopenta[c]pyrrol-5-yl)amino)pyridazin-3-yl)phenyl)cyclopropanecarboxamide]: 4% and 1.2 nM.
Take `[2H]C([2H])([2H])NC(=O)c1ccc(-c2ccc(N[C@H]3C[C@@H]4CN(C([2H])([2H])C5CCOCC5)C[C@@H]4C3)nn2)cc1` (single isomer, unassigned) [Compound A55]: the remaining activity at 30 µM (CHO-K1, read-out: Human M4 Emin (% ACh maximum at 30 μM)) amounted to 3%. The IC50 (M4/Gqi5/CHO-K1 cells) is 5.1 nM.
Regarding `[2H]C([2H])(C1CCOCC1)N1C[C@H]2C[C@H](Nc3ccc(-c4cccc(NC(C)=O)c4)nn3)C[C@H]2C1` [Compound A31, N-(3-(6-(((3aR,5s,6aS)-2-((tetrahydro-2H-pyran-4-yl)methyl-d2)octahydrocyclopenta[c]pyrrol-5-yl)amino)pyridazin-3-yl)phenyl)acetamide], under setting [1], the remaining activity at 30 µM came out at 3%. In addition, the IC50 (M4/Gqi5/CHO-K1 cells) turned out to be 11 nM.
The matching figures for `[2H]C([2H])([2H])NC(=O)c1cccc(-c2ccc(N[C@H]3C[C@@H]4CN(C([2H])([2H])C5CCOCC5)C[C@@H]4C3)nn2)c1` (single isomer, unassigned) [Compound A49]: 3% and 5.5 nM.
